{"source": "patent US11865114B2", "about": "“Method for treating diseases using SMARCA2/4 degraders” (Aurigene Discovery Technologies Limited, priority 2019, dated 2024)", "assay_type_in_all_cases": "cell-based", "key": {"[1]": {"system": "LNCaP-FGC (ATCC CRL-1740) cells", "test": "Anti-proliferative activity by Cell Titer Glo assay in LNCaP-FGC cells", "description": "(§1) Determination of Anti-Proliferative Activity of SMARCA2/4 Degrader in Cells by Cell Titer Glo® (Promega) Assay\n(§2) The prostate cancer cell lines, Vcap (ATCC #CRL-2876), LNCaP-FGC (ATCC CRL-1740), 22RV1 (ATCC CRL-2505), PC-3 (ATCC CRL-1435), DU-145 (ATCC HTB-81) and RWPE-1 (ATCC CRL-11609) were seeded in 96 well plate flat black clear bottom plates (Corning, Cat. No 3904) using respective complete media. Simultaneously cells were seeded for day 0 measurement.\n(§3) On the following day, compound 43 of the present invention was added to cells from 10 mM stocks made in DMSO (Sigma Cat no. D2650). DMSO alone was used a vehicle control. Day 0 plate was terminated on day of compound addition using 50 μl of Cell Titer Glo® reagent (Promega, Cat. no G7572). Compound was incubated for 8 days, except for 22RV1 which was incubated for 6 days. Media was replenished with fresh compound on day 4. After the compound incubation, assay was terminated using 50 μl of CellTiter Glo® reagent. CellTiter Glo® Luminescent reagent determines the number of viable cells based on quantitation of ATP present which is an indicator of cell number and metabolic activity. Luminescence readings were taken in fluorescent plate reader.\n(§4) Day 0 CTG measurement is designated as time zero (Tz), final CTG measurement in Vehicle control is designated as control growth DMSO (C) and test growth in the presence of drug at the nine concentration levels is designated as (Ti).\n(§5) Using the measurements [time zero (Tz), growth control DMSO (C) and test growth in the presence of drug at the nine concentration levels (Ti)] the percentage growth is calculated at each of the drug concentration levels. Percentage response is calculated as: [(Ti−Tz)/(C−Tz)]×100 for Concentrations for which Ti≥Tz [(Ti−Tz)/Tz]×100 for Concentrations for which Ti<Tz\n(§6) Three dose response parameters are calculated for each experimental agent. Growth inhibition of 50% (GI50) is calculated from [(Ti−Tz)/(C−Tz)]×100=50, which is the drug concentration resulting in a 50% reduction in the net luminescence increase (measured ATP) in control cells during the drug incubation.\n(§7) The LC50 (concentration of drug resulting in a 50% reduction in the measured ATP at the end of the drug treatment as compared to that at the beginning) indicating a net loss of cells following treatment is calculated from [(Ti−Tz)/Tz]×100=−50.\n(§8) Compound 43 of the present invention was analyzed against several cell lines representing normal and prostate cancer cells. The cell lines used in the present invention are harboring one or more tumor specific alterations such as presence of AR, PTEN mutations or TMPRSS2-ERG fusion which are presented below."}, "[2]": {"system": "DU-145 (ATCC HTB-81) cells", "test": "Anti-proliferative activity by Cell Titer Glo assay in DU145 cells", "description": "as §1, §2, §3, §4, §5\n(§9) Three dose response parameters are calculated for each experimental agent. […]\n(§10) Compound 43 of the present invention was analyzed against several cell lines representing normal and prostate cancer cells. […]"}, "[3]": {"system": "PC-3 (ATCC CRL-1435) cells", "test": "Anti-proliferative activity by Cell Titer Glo assay in PC3 cells", "description": "as §1, §2, §3, §4, §5, §6, §7, §8"}, "[4]": {"system": "22RV1 (ATCC CRL-2505) cells", "test": "Anti-proliferative activity by Cell Titer Glo assay in 22RV1 cells", "description": "as §1, §2, §3, §4, §5, §9, §10"}, "[5]": {"system": "RWPE-1 (ATCC CRL-11609) cells", "test": "Anti-proliferative activity by Cell Titer Glo assay in RWPE normal cells", "description": "as §1, §2, §3, §4, §5, §9, §10"}, "[6]": {"system": "Vcap (ATCC #CRL-2876) cells", "test": "Anti-proliferative activity by Cell Titer Glo assay in VCap cells", "description": "as §1, §2, §3, §4, §5, §6, §7, §8"}}}
{"molecule": "Cc1ncsc1-c1ccc([C@H](C)NC(=O)[C@@H]2C[C@@H](O)CN2C(=O)[C@@H](NC(=O)CN2CCN(c3cc(-c4ccccc4O)nnc3N)CC2)C(C)(C)C)cc1", "note": "[Compound 43]", "values": [{"measurement": "GI50", "setting": "[1]; 192 h, LnCapFGC cells, AR dependence +, PTEN mutation +, 8 days incubation", "result": 5, "unit": "nM"}, {"measurement": "CC50", "setting": "[1]; LnCapFGC cells, 50% reduction in measured ATP versus day 0, 8 days incubation, read-out: LC50 (the source's name)", "result": 22, "unit": "nM"}, {"measurement": "Observed cell killing", "setting": "[1]; LnCapFGC cells, 8 days incubation", "result": "Yes"}, {"measurement": "Inhibition of cell growth and cell killing (in words)", "setting": "[1]; LnCapFGC, two tumor specific alterations, FIG. 4B", "result": "both growth and cell killing were potently impacted"}, {"measurement": "Inhibition of cell growth and cell killing (in words)", "setting": "[2]; DU145, none of the tumor specific alterations, FIG. 2", "result": "neither inhibition of cell growth nor cell killing was observed"}, {"measurement": "Observed cell killing", "setting": "[2]; DU145 cells, 8 days incubation", "result": "No"}, {"measurement": "GI50", "setting": "[2]; Homo sapiens, DU-145, 192 h, DU145 cells, none of the tumor-specific alterations, 8 days incubation", "result": "> 10000", "unit": "nM"}, {"measurement": "GI50", "setting": "[3]; Homo sapiens, PC-3, 192 h, PC3 cells, PTEN mutation +, 8 days incubation", "result": 51, "unit": "nM"}, {"measurement": "CC50", "setting": "[3]; Homo sapiens, PC-3, PC3 cells, 50% reduction in measured ATP versus day 0, 8 days incubation, read-out: LC50 (the source's name)", "result": 3410, "unit": "nM"}, {"measurement": "Inhibition of cell growth and cell killing (in words)", "setting": "[3]; PC3, one tumor-specific alteration, FIG. 3B", "result": "potently inhibited with no or moderate cell killing"}, {"measurement": "Observed cell killing", "setting": "[3]; PC3 cells, 8 days incubation", "result": "Yes"}, {"measurement": "Inhibition of cell growth and cell killing (in words)", "setting": "[4]; 22RV1, one tumor-specific alteration, FIG. 3A", "result": "potently inhibited with no or moderate cell killing"}, {"measurement": "Observed cell killing", "setting": "[4]; 22RV1 cells, 6 days incubation", "result": "No"}, {"measurement": "GI50", "setting": "[4]; Homo sapiens, 144 h, 22RV1 cells, AR dependence +, 6 days incubation", "result": 14, "unit": "nM"}, {"measurement": "GI50", "setting": "[5]; Homo sapiens, RWPE-1, 192 h, RWPE (Normal) cells, normal AR, no PTEN mutation, no TMPRSS2-ERG fusion, 8 days incubation", "result": 260, "unit": "nM"}, {"measurement": "Observed cell killing", "setting": "[5]; RWPE (Normal) cells, 8 days incubation", "result": "No"}, {"measurement": "Inhibition of cell growth and cell killing (in words)", "setting": "[5]; normal cell (RWPE), FIG. 1", "result": "did not show any inhibition and cell killing"}, {"measurement": "GI50", "setting": "[6]; Homo sapiens, 192 h, VCap cells, AR dependence +, TMPRSS2-ERG fusion +, 8 days incubation", "result": 3, "unit": "nM"}, {"measurement": "CC50", "setting": "[6]; Homo sapiens, VCap cells, 50% reduction in measured ATP versus day 0, 8 days incubation, read-out: LC50 (the source's name)", "result": 11, "unit": "nM"}, {"measurement": "Observed cell killing", "setting": "[6]; VCap cells, 8 days incubation", "result": "Yes"}, {"measurement": "Inhibition of cell growth and cell killing (in words)", "setting": "[6]; VCap, two tumor specific alterations, FIG. 4A", "result": "both growth and cell killing were potently impacted"}]}
